Reference: patent publication US11090349B2, “Plant extract obtained from Morus plant leaves, compositions containing same, method of extraction and uses thereof” (Botanic Century (Beijing) Co. Ltd., priority 2009, dated 2021)

What was measured:
[1] = tested on: B16 melanoma cells; experiment: Melanin content in B16 melanoma cells; type: cell-based; settings: different concentrations
Method: The aim was to investigate the impact of the test samples on melanin content of melanoma cell line B16. […] The method was as set out below: • 1. Harvest the melanoma B16 cells at Log phase and adjust the cell suspension to an appropriate concentration, divide into 24 well plates and allow the cells to adhere to the walls. • 2. […] Add 250 μl WIP lysis buffer and allow to lyse in an ice bath, vortex mixing once every 5 min for 4-5 times. • 4. Centrifuge for 10 min at 12000 rpm at 4° C. Discard the supernatant and dissolve the precipitate with 400 μl 1N NaOH and keep it in a 80° C. water bath for 1 hour. • 5. Use a microplate reader to measure OD value at 405 nm, and calculate the relative content. Results and discussion: The B16 melanoma cells were seeded at a density of 4×10^4 cell per well of 24-well culture plates, incubated at 37° C. under 5% CO2 atmosphere for 24 h. […] The cells were washed with phosphate-buffered saline, collected in centrifuge tube. After centrifugation, cell pellets were disrupted in WIP lysis buffer containing phenylmethylsulfonyl fluoride (PMSF) on ice for 30 min. The solution was centrifuged for 10 min at 12000 g at 4° C., the pellets were dissolved in 1N NaOH by boiling for 1 h at 70° C. The melanin content was assayed at 405 nm in a spectrophotometer.

[2] = tested on: B16 melanoma cells; experiment: Cell viability, MTT assay; type: cell-based; settings: for growth inhibition of B16 melanoma cells (MTT): below the concentration of 200 ppm
Method: Cell survival was measured using the MTT assay, which is based on the conversion of 3-(4,5-dimethylthiazol-2-yl)-2,5-diphenyltetrazolium bromide to MTT-formazan crystal by mitochondrial enzyme in viable cells. MTT was freshly prepared at 2 mg/ml in phosphate-buffered saline (PBS). […] Aliquots of 20 μl of MTT stock solution were added to the well at different time points throughout the experiment, and the plate was incubated at 37° C. for 4 h in a humidified 5% CO2 incubator. After 4 h, the formazan crystals of these cells were solubilized in 100 μl DMSO by gentle shaking. After 10 min, the amount of formazan was quantified spectrophotometrically using an ELISA plate reader at 540 nm.

[3] = target: T1, tyrosinase (Mus musculus, UniProt P11344); experiment: Direct effect on tyrosinase catalytic activity in B16 cell extract; type: biochemical; settings: incubated 1 hour at 37° C., L-dopa
T1 construct: supernatant (cell extract) containing the cellular components being retained for assay purposes; endogenous in cells; host or cells: B16 melanoma cells
T1 sequence (P11344 19-533): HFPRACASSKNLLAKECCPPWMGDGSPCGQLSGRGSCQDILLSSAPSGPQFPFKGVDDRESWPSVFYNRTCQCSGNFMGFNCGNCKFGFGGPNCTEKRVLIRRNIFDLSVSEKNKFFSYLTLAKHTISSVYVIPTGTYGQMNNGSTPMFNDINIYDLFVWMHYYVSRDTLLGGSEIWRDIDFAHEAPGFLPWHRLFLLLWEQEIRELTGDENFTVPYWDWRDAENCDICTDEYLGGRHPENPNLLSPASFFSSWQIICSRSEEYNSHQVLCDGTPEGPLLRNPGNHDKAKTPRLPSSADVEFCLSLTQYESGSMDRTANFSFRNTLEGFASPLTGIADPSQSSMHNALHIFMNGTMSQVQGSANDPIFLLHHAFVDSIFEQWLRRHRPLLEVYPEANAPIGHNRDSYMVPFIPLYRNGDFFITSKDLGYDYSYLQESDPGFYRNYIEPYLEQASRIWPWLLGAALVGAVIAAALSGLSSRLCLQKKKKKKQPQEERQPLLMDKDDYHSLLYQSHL
Method: (§1) The aim was to investigate the impact and mechanisms of action of the test samples on the TYR activity in melanoma cell line B16.
(§2) B16 melanoma cells were washed with phosphate-buffered saline and collected in a centrifuge tube. After centrifugation, WIP-lysis buffer containing phenyl-methylsulfonyl fluoride (PMSF) was added to the cell pellet to lyse the cells and the solution was left to stand on ice for 30 minutes. The solution was subsequently centrifuged for 10 min, at 12000 g, at 4° C., with the supernatant (cell extract) containing the cellular components being retained for assay purposes.
The plate was incubated at 37° C. for 1 hour, and then 80 μl L-dopa was added to each well. The absorbance (492 nm) of each well was recorded at 5 minute intervals for 30 minutes at 37° C. using a microplate reader.

[4] = tested on: tyrosinase; experiment: Indirect effect on tyrosinase activity, B16 cells cultured with sample for three days; type: cell-based; settings: B16 cells incubated three days with test compound before extraction
Method: as §1, §2

[5] = tested on: Wistar rats; experiment: Blood glucose of Wistar rats after starch meal; type: in vivo, Wistar rat; settings: positive control 25 mg/kg
Method: The reagents and apparatus are set out below: • (1) Mulberry leaf extract of Example 1 • (2) Saline • (3) Miglitol standard reference chemical • (4) 64 Wistar rats • (5) Johnson's One Touch Ultra blood glucose meter and Code 9 blood glucose test strips The method used was as set out below:
Animals received Morus extract via intraperitoneal injection (15 mg/kg or 30 mg/kg) or intragastrically (25 mg/kg or 50 mg/kg). Miglitol (Glyset®) (25 mg/kg), an α-glucosidase inhibitor approved for type-2 diabetes was used as a positive control. Fasted blood-sugar levels were recorded as a baseline, and blood sugar levels were measured at time intervals 05.hr, 1 hr and 2 hrs after receiving a starch meal. The animals were dosed with Morus extract prior to receiving the starch meal.

SMILES | content of melanin compared to the control [1] | concentration above which viability of the cell decreased ([2]; B16 melanoma cell) | growth inhibition of B16 melanoma cells (MTT) [2] | direct effect on tyrosinase activity [3] | indirect effect on tyrosinase activity [4] | Blood glucose 0.5 h after giving starch [5] [mmol/L] | Blood glucose 1 h after giving starch [5] [mmol/L] | Blood glucose 2 h after giving starch [5] [mmol/L] | Fasted Glucose ([5]; baseline) [mmol/L]
O=C1O[C@H]([C@@H](O)CO)C([O-])=C1OP(=O)([O-])[O-].O=C1O[C@H]([C@@H](O)CO)C([O-])=C1OP(=O)([O-])[O-].[Mg+2].[Mg+2].[Mg+2] [VC-PMG, magnesium L-ascorbyl-2-phosphate] | decreased significantly in a dose-dependent manner | over 200 ppm | no growth inhibition |  |  |  |  |  | 
OCC1NCC(O)C(O)C1O (stereo not shown) [DNJ, 1-deoxynojirimycin] | decreased significantly in a dose-dependent manner |  | no growth inhibition | no effect on tyrosinase activity | dose-dependent decrease in tyrosinase activity |  |  |  | 
OC[C@H]1O[C@@H](Oc2ccc(O)cc2)[C@H](O)[C@@H](O)[C@@H]1O [arbutin] |  |  |  | reduced the activity of tyrosinase in a dose-dependent manner | no effect on tyrosinase activity |  |  |  | 
OCCN1C[C@H](O)[C@@H](O)[C@H](O)[C@H]1CO [Miglitol] |  |  |  |  |  | 2.27 ± 0.71 | 2.98 ± 0.52 | 2.69 ± 0.35 | 3.04 ± 0.74
